Legend:
[1] = system: murine dermal fibroblasts (MDF); experiment: qPCR gene expression in murine dermal fibroblasts; format: cell-based, mouse; settings: MDF, 10^−7M, qPCR
Source text: Primary human dermal fibroblasts (HDF) were isolated from abdominal skin or leg skin. Primary neonatal normal human epidermal keratinocytes (NHEK) were purchased (Lonza). Murine dermal fibroblasts (MDF), murine epidermal keratinocytes (MEK), murine peritoneal macrophages and murine bone marrow were isolated from C57/B16 (wt). NDb (Lepr+/−) or Db (Lepr−/−) mice. Fibroblasts were isolated and cultured in DMEM supplemented with 10% heat inactivated FBS. 1% penicillin/streptomycin and 1% amphotericin B. At least 4 days prior to performing assays cells were switched to DMEM supplemented with 5% charcoal-stripped FBS. Following treatments, human and murine macrophages were collected in Trizol and RNA isolated using the Trizol plus RNA isolation kit (Invitrogen. Thermo Fisher) according to the manufacturer's instructions. RNA was reverse transcribed to cDNA using GoScript reverse transcriptase (Promega). Quantitative real-time PCR was carried out using 2×Takyon SYBR Green mastermix and a CFX Connect thermocycler. Primers for ERα and ERβ were used to explore changes in ER expression after treatment of MEK and MDF with E2 and E4. To investigate the effect of E2 and E4 on MEK differentiation and the expression of ECM proteins by MDF, primers for. Snail, keratin-1 and fibronectin, collagen I. MMP-2 and MMP-9 were used. Primers for INOS. IL-1B and Tnf-α or Ccl17 were used to assess M1/M2 polarisation status. Primers for GAPDH were used to normalise data. Relative gene expression was set to vehicle controls or M0 expression unless otherwise stated. In vitro cultured murine fibroblasts were treated with either E2, E4, DPN or PPT at 10^−7M. As previously reported. […] Next, zymography was performed on cell supernatants from HDFs treated with either E2 or E4, to evaluate the effect of E2 and E4 on cell-derived MMP activity. […] The magnitude of the effect (and statistical significance) was greater in cells treated with E4. No MMP9 activity was detected in any treatment group. Finally, we explored the effect of E2 and E4 on murine fibroblast expression of extracellular matrix genes, specifically collagen 1 (Colal) and fibronectin (Fn1) (FIG. 20).

[2] = system: mouse bone marrow derived macrophages (BMDM); experiment: M1-polarised murine bone marrow derived macrophages, qPCR of M1 markers; format: cell-based; settings: M1 polarised BMDM, E4 10^−7M, preliminary
Experimental: Bones were flushed with DMEM supplemented with 1% penicillin/streptomycin and 1% amphotericin B. Bone marrow cells were seeded into 12- or 6-well plates at 1×10^6 cells/ml in DMEM supplemented with 10% FBS and 10% L929-conditioned medium to induce differentiation. After 7-10 days, differentiated macrophages were treated with 10^−7M E2 or E4 in serum free growth medium for 16 hours and polarised to M1-type cells using 100 ng/ml IFN-γ and 1 μg/ml LPS. Following 6- or 24-hours polarisation cells were collected for RNA isolation or flow cytometry.
Following treatments, human and murine macrophages were collected in Trizol and RNA isolated using the Trizol plus RNA isolation kit (Invitrogen. Thermo Fisher) according to the manufacturer's instructions. RNA was reverse transcribed to cDNA using GoScript reverse transcriptase (Promega). Quantitative real-time PCR was carried out using 2×Takyon SYBR Green mastermix and a CFX Connect thermocycler. Primers for ERα and ERβ were used to explore changes in ER expression after treatment of MEK and MDF with E2 and E4. To investigate the effect of E2 and E4 on MEK differentiation and the expression of ECM proteins by MDF, primers for. Snail, keratin-1 and fibronectin, collagen I. MMP-2 and MMP-9 were used. Primers for INOS. IL-1B and Tnf-α or Ccl17 were used to assess M1/M2 polarisation status. Primers for GAPDH were used to normalise data. Relative gene expression was set to vehicle controls or M0 expression unless otherwise stated.
For follow up experiments murine bone marrow derived monocytes were isolated, differentiated (L929 media) and polarised to a pro-inflammatory M1 phenotype (IFN-γ and LPS: for 6 or 24 hours), and co-treated with either E2 or E4 at the optimal concentration identified in THP1 cells (10^−7: FIG. 24). […] Experiments were then undertaken with murine bone marrow derived monocytes differentiated to macrophages with 30 ng/ml MCSF, as opposed to L929 conditioned media.

[3] = system: human dermal fibroblasts (HDF); experiment: Scratch wound assay, human dermal fibroblasts; format: cell-based; settings: HDF, 24 hours, preliminary
Source text: Primary human dermal fibroblasts (HDF) were isolated from abdominal skin or leg skin. Primary neonatal normal human epidermal keratinocytes (NHEK) were purchased (Lonza). Murine dermal fibroblasts (MDF), murine epidermal keratinocytes (MEK), murine peritoneal macrophages and murine bone marrow were isolated from C57/B16 (wt). NDb (Lepr+/-) or Db (Lepr-/-) mice. Fibroblasts were isolated and cultured in DMEM supplemented with 10% heat inactivated FBS. 1% penicillin/streptomycin and 1% amphotericin B. At least 4 days prior to performing assays cells were switched to DMEM supplemented with 5% charcoal-stripped FBS. Cells were seeded into 24 well plates and cultured to form a confluent monolayer, and then scratched with a 1 ml pipette tip. Wells were treated with E2, E4 and/or various estrogen receptor agonists and antagonists. […] A vehicle control containing the equivalent concentration of EtOH and/or DMSO was included, in addition to an untreated negative control. All treatments were diluted to working concentrations in media supplemented with 2% charcoal-stripped FBS. To visualise scratches at the defined endpoint, cells were stained with crystal violet and imaged on a Nikon E400 brightfield microscope. Scratch closure was determined from multiple independent measurements per well. Scratch assays were performed to quantify the effect of E2 and E4 at varying concentrations on HDF migration (FIG. 14). […] 10^-7M and 10^-6M (152%. 147% and 142% respectively). Thus, both E2 and E4 optimally stimulated fibroblast scratch wound closure at 10^-8M, with the higher magnitude of stimulation observed following E2 treatment. Next, an additional experiment was performed using HDF to a) further confirm the effects of E2 and E4 in fibroblasts from a fifth donor and b) explore the relative effect of including CS-FBS in the cell culture media. Three identical sets of scratch assays were performed (comparing vehicle to E2 or E4 treatment at 10^-7M) in DMEM containing either 2% CS-FBS. 0% FBS or 2% FBS (not CS).

| Structure (SMILES) | expression of ERα and ERβ [1] | effect of ER antagonist co-treatment on E4-mediated reduction in IL1-β [2] | effect of ER antagonist co-treatment on E4-induced scratch closure [3] |
| --- | --- | --- | --- |
| N#CC(Cc1ccc(O)cc1)c1ccc(O)cc1 (stereo not shown) [DPN] | increased ERβ expression | – | – |
| Cc1c(-c2ccc(O)cc2)nn(-c2ccc(O)cc2)c1-c1ccc(OCCN2CCCCC2)cc1 [MPP, reference compound] | – | appears to block E4-induced scratch closure and E4-mediated reduction in IL1-β | appears to block E4-induced scratch closure |
| CCCc1c(-c2ccc(O)cc2)nn(-c2ccc(O)cc2)c1-c1ccc(O)cc1 [PPT] | increased ERα | – | – |

Source: US20260115202A1, “TOPICAL COMPOSITIONS COMPRISING AN ESTETROL COMPONENT AND USE OF SAID COMPOSITIONS FOR WOUND HEALING” (NEURALIS SA, priority 2022, published 2026)
